The data set is classed as in vivo. As to conditions: both treatment groups together. As to the method: Key exclusion criteria related to significant baseline pulmonary and cardiac disease, including uncontrolled hypertension (defined as an average systolic blood pressure >159 mmHg or diastolic >99 mmHg despite optimal treatment). Analysis of LVEF changes over time was conducted. Long-term corticosteroid treatment equivalent to a dexamethasone dose of 4.0 mg/day or prednisone at a dose of >20 mg/day was not permitted while receiving study treatment. Corticosteroids administered short-term (up to 2 weeks) were permitted, provided the cumulative dose was less than a 40 mg per week dexamethasone equivalent.
Randomization was performed using an interactive voice or web response system. […]
Statistical analysis: Efficacy evaluations were based on the intention-to-treat population. […] For primary and key secondary endpoints, response and disease progression were determined by a blinded Independent Review Committee. Additionally, they were determined locally by investigators in an unblinded manner and centrally by the sponsor using a validated computer algorithm, which served as sensitivity analysis of PFS.
Descriptive statistics identified the extent of missing data. […] For patients who died on study, the death date was recorded on the end of study CRF page at the end of the study date. […]

The text below walks through data of patent US12636340B2, “Methods of treating multiple myeloma” (ONYX PHARMACEUTICALS, INC., priority 2020, dated 2026).

`CC(C)C[C@H](NC(=O)[C@H](CCc1ccccc1)NC(=O)CN1CCOCC1)C(=O)N[C@@H](Cc1ccccc1)C(=O)N[C@@H](CC(C)C)C(=O)[C@@]1(C)CO1` [carfilzomib]: the “patients who discontinued carfilzomib due to AEs, overall” value turned out to be 21.3%.
